Laboratory results from patent publication US4313956A, “Novel sypathomimetic amine prodrugs” (INTERx Research Corp., priority 1979, dated 1982).
Where “and” joins values, the source holds several entries; their conditions need not be identical. Identical values can stand only once.

Columns and labels:
[1] = system: burn response of the right ear of female Sprague-Dawley rats; experiment: Ear Burn Test (anti-inflammatory activity, ear burn model); type: in vivo; details: for mean (-x) of Δ %, % increase in thickness of the treated ear: group mean; for R ear (thickness of burned, treated ear) / Δ %, % increase in thickness of the treated ear: individual rats; for % inhibition of control response / % inhibition of control response (negative = inflammatory): 50 μl/burned ear, vehicle 90% acetone, 10% IPM, 16-18 hours; for % inhibition of control response (negative = inflammatory): 3 × 10^-2 M
Method: The anti-inflammatory activity of dipivalyloxymethylepinephrine (DDME), a novel prodrug according to this invention, was determined in an ear burn model vis-a-vis the known epinephrine prodrug, dipivalylepinephrine (DPE). Three different ear burn experiments were carried out, each experiment developing a comparison at two different drug dosages.
A controlled thermal challenge was administered to the right ear of female Sprague-Dawley rats, 40-60 g. […] Pressure applied during the 21 second burn administration was ca. 640 g/cm^2. Two groups, with and without application of vehicle (90% acetone, 10% isopropyl-myristate) served as controls. Vehicle with or without drug was applied to the right ear immediately after burning in the amount of […]. Rats were killed by cervical disclocation 16-18 hours after treatment and the thickness of each ear was determined with a micrometer (in inches ×10^3). Burn response values were normalized by expression of the % increase in thickness of the treated ear, i.e., [formula] The vehicle-treated control group was considered to be the maximum burn response within any given experiment. Inhibition or reversal of the burn response due to drug treatment is expressed as a percentage of the control response.

psoriatic response = details: concentrations comparable to 3×10^-2 M; cited from earlier work
[2] = 0.00001 M, n = 8, control/vehicle 44.6%
[3] = 0.0001 M, n = 8, control/vehicle 44.6%
[4] = .00003 M, control/vehicle 40.2 ± 12.6
[5] = .0003 M, control/vehicle 40.2 ± 12.6
[6] = .003 M, control/vehicle 32.5 ± 8.9
[7] = .03 M, control/vehicle 32.5 ± 8.9

Row | SMILES | mean (-x) of Δ %, % increase in thickness of the treated ear [1, 2] | R ear (thickness of burned, treated ear) ([1]; 0.00001 M) | Δ %, % increase in thickness of the treated ear ([1]; 0.00001 M) | mean (-x) of Δ %, % increase in thickness of the treated ear [1, 3] | R ear (thickness of burned, treated ear) ([1]; 0.0001 M) | Δ %, % increase in thickness of the treated ear ([1]; 0.0001 M) | % inhibition of control response ([1]; 1 × 10^-4 M) | % inhibition of control response ([1]; 1 × 10^-5 M) | % inhibition of control response (negative = inflammatory) [1] | % inhibition of control response ([1]; 3 × 10^-3 M) | % inhibition of control response ([1]; 3 × 10^-4 M) | % inhibition of control response ([1]; 3 × 10^-5 M) | mean (-x) of Δ %, % increase in thickness of the treated ear [1, 4] | R ear (thickness of burned, treated ear) ([1]; .00003 M) | Δ %, % increase in thickness of the treated ear ([1]; .00003 M) | mean (-x) of Δ %, % increase in thickness of the treated ear [1, 5] | R ear (thickness of burned, treated ear) ([1]; .0003 M) | Δ %, % increase in thickness of the treated ear ([1]; .0003 M) | mean (-x) of Δ %, % increase in thickness of the treated ear [1, 6] | R ear (thickness of burned, treated ear) ([1]; .003 M) | other results
1 | CNCC(O)c1ccc(OC(=O)C(C)(C)C)c(OC(=O)C(C)(C)C)c1 (stereo not drawn) [DPE, dipivalylepinephrine] | 33.3% | 17.8 inches ×10^3 and 15.7 inches ×10^3 and 16.2 inches ×10^3 and 18.1 inches ×10^3 and 16.1 inches ×10^3 and 14.5 inches ×10^3 and 18.3 inches ×10^3 | 41.3% and 26.6% and 24.6% and 29.8% and 46.0% and 26.8% and 25.0% and 46.4% | 34.4% | 15.9 inches ×10^3 and 17.3 inches ×10^3 and 17.4 inches ×10^3 and 18.3 inches ×10^3 and 16.6 inches ×10^3 and 15.8 inches ×10^3 and 16.4 inches ×10^3 and 17.2 inches ×10^3 | 31.4% and 35.2% and 35.9% and 48.8% and 32.8% and 26.4% and 27.1% and 37.6% | 22.9% | 25.3% | -21.5% | 8% | 31.3% | 19.7% | 32.3 ± 5.2% | 16.4 inches ×10^3 and 18.2 inches ×10^3 and 17.5 inches ×10^3 and 18.1 inches ×10^3 and 16.8 inches ×10^3 and 18.5 inches ×10^3 and 14.5 inches ×10^3 and 16.0 inches ×10^3 | 29.1% and 32.8% and 31.6% and 40.3% and 36.6% and 37.0% and 22.9% and 30.1% | 27.6 ± 6.9% | 15.8 inches ×10^3 and 16.4 inches ×10^3 and 18.0 inches ×10^3 and 18.3 inches ×10^3 and 17.7 inches ×10^3 and 16.6 inches ×10^3 and 15.2 inches ×10^3 and 16.2 inches ×10^3 | 27.4% and 26.2% and 27.7% and 35.6% and 34.1% and 12.6% and 29.6% | 29.9 ± 10.8% | 18.6 inches ×10^3 and 19.6 inches ×10^3 and 19.8 inches ×10^3 and 16.7 inches ×10^3 and 16.5 inches ×10^3 and 17.1 inches ×10^3 and 13.4 inches ×10^3 and 17.2 inches ×10^3 | Δ %, % increase in thickness of the treated ear ([1]; .003 M): 39.8% and 41.0% and 43.5% and 21.9% and 23.1% and 29.5% and 12.6% and 27.4%; mean (-x) of Δ %, % increase in thickness of the treated ear [1, 7]: 39.5 ± 11.4%; R ear (thickness of burned, treated ear) ([1]; .03 M): 17.5 inches ×10^3 and 21.3 inches ×10^3 and 18.1 inches ×10^3 and 18.5 inches ×10^3 and 20.0 inches ×10^3 and 17.4 inches ×10^3 and 15.7 inches ×10^3 and 18.3 inches ×10^3; Δ %, % increase in thickness of the treated ear ([1]; .03 M): 32.6% and 56.6% and 43.7% and 37.0% and 52.7% and 28.9% and 23.6% and 40.8%; psoriatic response in clinical observations (psoriatic response): a psoriatic response was often observed
2 | CNCC(O)c1ccc(OCOC(=O)C(C)(C)C)c(OCOC(=O)C(C)(C)C)c1 (stereo not drawn) [DPME, dipivalyloxymethylepinephrine] | 30.5% | 16.3 inches ×10^3 and 16.5 inches ×10^3 and 13.8 inches ×10^3 and 14.1 inches ×10^3 and 17.0 inches ×10^3 and 14.7 inches ×10^3 and 17.8 inches ×10^3 and 16.8 inches ×10^3 | 30.4% and 35.2% and 16.9% and 22.6% and 41.7% and 20.5% and 40.2% and 36.6% | 23.0% | 14.0 inches ×10^3 and 14.7 inches ×10^3 and 13.6 inches ×10^3 and 14.5 inches ×10^3 and 15.4 inches ×10^3 and 14.9 inches ×10^3 and 15.3 inches ×10^3 | 18.6% and 23.5% and 12.4% and 21.8% and 31.6% and 22.5% and 26.3% and 27.5% | 48.4% | 31.6% | -32.6% | 8% | 41.3% | 30.6% | 27.9 ± 6.2% | 15.3 inches ×10^3 and 17.8 inches ×10^3 and 16.6 inches ×10^3 and 16.3 inches ×10^3 and 15.5 inches ×10^3 and 15.4 inches ×10^3 and 16.9 inches ×10^3 | 17.7% and 38.0% and 31.7% and 25.4% and 26.0% and 24.2% and 32.8% and 27.0% | 23.6 ± 7.9% | 17.7 inches ×10^3 and 16.4 inches ×10^3 and 18.0 inches ×10^3 and 17.5 inches ×10^3 and 15.2 inches ×10^3 and 15.5 inches ×10^3 and 15.0 inches ×10^3 and 14.8 inches ×10^3 | 22.1% and 17.1% and 38.5% and 31.6% and 22.6% and 24.0% and 17.2% and 15.6% | 29.9 ± 12.2% | 19.9 inches ×10^3 and 15.1 inches ×10^3 and 18.1 inches ×10^3 and 17.0 inches ×10^3 and 17.1 inches ×10^3 and 15.2 inches ×10^3 and 14.0 inches ×10^3 and 16.9 inches ×10^3 | Δ %, % increase in thickness of the treated ear ([1]; .003 M): 45.3% and 21.8% and 42.5% and 26.9% and 41.3% and 17.8% and 12.9% and 31.0%; mean (-x) of Δ %, % increase in thickness of the treated ear [1, 7]: 43.1 ± 12.4%; R ear (thickness of burned, treated ear) ([1]; .03 M): 18.4 inches ×10^3 and 16.9 inches ×10^3 and 20.7 inches ×10^3 and 18.2 inches ×10^3 and 19.3 inches ×10^3 and 20.9 inches ×10^3 and 19.0 inches ×10^3; Δ %, % increase in thickness of the treated ear ([1]; .03 M): 36.3% and 30.0% and 47.9% and 43.0% and 64.6% and 49.6%; anti-inflammatory effect compared with DPE ([1]; low concentration levels): consistently elicits a greater anti-inflammatory effect than DPE; more effective as an anti-inflammatory agent from a dosage standpoint ([1]; versus DPE, dose response profiles at low concentrations): 10-30 fold
